Laboratory results taken from the NIST ThermoML archive (doi:10.1016/j.tca.2008.05.002).
± gives the expanded uncertainty stated by the source.

Assay: molar heat capacity at constant pressure
Conditions: 101.33 kPa, Small (less than 1 g) adiabatic calorimetry

Compound: CCCCn1cc[n+](C)c1.O=[N+]([O-])[O-] [1-butyl-3-methylimidazolium nitrate]
- molar heat capacity at constant pressure (5 K, Crystal 4): 0.536 ± 0.033 J/K/mol
- molar heat capacity at constant pressure (10 K, Crystal 4): 4.46 ± 0.091 J/K/mol
- molar heat capacity at constant pressure (15 K, Crystal 4): 11.93 ± 0.19 J/K/mol
- molar heat capacity at constant pressure (20 K, Crystal 4): 21.74 ± 0.28 J/K/mol
- molar heat capacity at constant pressure (25 K, Crystal 4): 32.7 ± 0.35 J/K/mol
- molar heat capacity at constant pressure (30 K, Crystal 4): 43.8 ± 0.32 J/K/mol
- molar heat capacity at constant pressure (35 K, Crystal 4): 54.44 ± 0.37 J/K/mol
- molar heat capacity at constant pressure (40 K, Crystal 4): 64.5 ± 0.42 J/K/mol
- molar heat capacity at constant pressure (45 K, Crystal 4): 73.88 ± 0.47 J/K/mol
- molar heat capacity at constant pressure (50 K, Crystal 4): 82.59 ± 0.52 J/K/mol
- molar heat capacity at constant pressure (55 K, Crystal 4): 90.63 ± 0.58 J/K/mol
- molar heat capacity at constant pressure (60 K, Crystal 4): 97.94 ± 0.58 J/K/mol
- molar heat capacity at constant pressure (70 K, Crystal 4): 111.1 ± 0.67 J/K/mol
- molar heat capacity at constant pressure (80 K, Crystal 4): 122.4 ± 0.75 J/K/mol
- molar heat capacity at constant pressure (90 K, Crystal 4): 132.2 ± 0.75 J/K/mol
- molar heat capacity at constant pressure (100 K, Crystal 4): 141 ± 0.75 J/K/mol
- molar heat capacity at constant pressure (110 K, Crystal 4): 149.2 ± 0.83 J/K/mol
- molar heat capacity at constant pressure (120 K, Crystal 4): 156.9 ± 0.83 J/K/mol
- molar heat capacity at constant pressure (130 K, Crystal 4): 164.4 ± 0.83 J/K/mol
- molar heat capacity at constant pressure (140 K, Crystal 4): 171.8 ± 0.92 J/K/mol
- molar heat capacity at constant pressure (150 K, Crystal 4): 179.1 ± 0.92 J/K/mol
- molar heat capacity at constant pressure (160 K, Crystal 4): 186.5 ± 0.92 J/K/mol
- molar heat capacity at constant pressure (170 K, Crystal 4): 194.1 ± 1 J/K/mol
- molar heat capacity at constant pressure (180 K, Crystal 4): 202 ± 1 J/K/mol
- molar heat capacity at constant pressure (190 K, Crystal 4): 210.1 ± 1.1 J/K/mol
- molar heat capacity at constant pressure (200 K, Crystal 4): 218.6 ± 1.1 J/K/mol
- molar heat capacity at constant pressure (210 K, Crystal 4): 227.3 ± 1.1 J/K/mol
- molar heat capacity at constant pressure (220 K, Crystal 4): 236.2 ± 1.2 J/K/mol
- molar heat capacity at constant pressure (230 K, Crystal 4): 245.1 ± 1.2 J/K/mol
- molar heat capacity at constant pressure (240 K, Crystal 4): 254 ± 1.2 J/K/mol
- molar heat capacity at constant pressure (250 K, Crystal 4): 262.9 ± 1.2 J/K/mol
- molar heat capacity at constant pressure (260 K, Crystal 4): 271.8 ± 1.2 J/K/mol
- molar heat capacity at constant pressure (270 K, Crystal 4): 280.7 ± 1.3 J/K/mol
- molar heat capacity at constant pressure (278.2 K, Crystal 3): 288 ± 1.3 J/K/mol
- molar heat capacity at constant pressure (278.2 K, Crystal 4): 288 ± 1.3 J/K/mol
- molar heat capacity at constant pressure (280 K, Crystal 3): 289.6 ± 1.3 J/K/mol
- molar heat capacity at constant pressure (285 K, Crystal 3): 294.1 ± 1.4 J/K/mol
- molar heat capacity at constant pressure (288.1 K, Crystal 2): 296.8 ± 1.4 J/K/mol
- molar heat capacity at constant pressure (288.1 K, Crystal 3): 296.8 ± 1.4 J/K/mol
- molar heat capacity at constant pressure (290 K, Crystal 2): 298.6 ± 1.4 J/K/mol
- molar heat capacity at constant pressure (292.2 K, Crystal 1): 300.5 ± 1.4 J/K/mol
- molar heat capacity at constant pressure (292.2 K, Crystal 2): 300.5 ± 1.4 J/K/mol
- molar heat capacity at constant pressure (295 K, Crystal 1): 303 ± 1.4 J/K/mol
- molar heat capacity at constant pressure (298.15 K, Crystal 1): 305.8 ± 1.4 J/K/mol
- molar heat capacity at constant pressure (300 K, Crystal 1): 307.5 ± 1.4 J/K/mol
- molar heat capacity at constant pressure (309.16 K, Crystal 1): 315.6 ± 1.5 J/K/mol
- molar heat capacity at constant pressure (309.16 K, Liquid): 357.7 ± 1.7 J/K/mol
- molar heat capacity at constant pressure (310 K, Liquid): 358 ± 1.7 J/K/mol
- molar heat capacity at constant pressure (320 K, Liquid): 361.8 ± 1.7 J/K/mol
- molar heat capacity at constant pressure (330 K, Liquid): 365.8 ± 1.7 J/K/mol
- molar heat capacity at constant pressure (340 K, Liquid): 369.8 ± 1.7 J/K/mol
- molar heat capacity at constant pressure (350 K, Liquid): 374.1 ± 1.7 J/K/mol
- molar heat capacity at constant pressure (360 K, Liquid): 378.5 ± 1.7 J/K/mol
- molar heat capacity at constant pressure (370 K, Liquid): 383 ± 1.7 J/K/mol
